The target of test [1] is T1, NMDA receptor (N-methyl-D-aspartate receptor, NR1/2A) (Homo sapiens, UniProt Q05586+Q12879).
T1 construct: T2A self-cleaving peptide (linker between NR1 and 2A) (C)
Kind of test: NMDA receptor antagonistic activity assay (whole cell manual patch clamp, channel currents). The test is classed as cell-based. The conditions noted are these: HEK293 cells transiently expressing hNR1/2A; current evoked by 100 μM glutamic acid + 100 μM glycine at -70 mV; read-out: NMDAR antagonistic activity (IC50). Here is the method: The effect of the compounds on NMDA receptor (N-methyl-D-aspartate receptor, NR1/2A) channel currents was tested using the electrophysiological whole cell manual patch clamp method.
The HEK293 cell line was cultured in DMEM medium containing 10% fetal bovine serum at 37° C. with 5% carbon dioxide.
Preparation of compound: on the day of testing, the stock solution of the compound of the present disclosure was diluted with DMSO to an intermediate concentration, which was then further diluted with an extracellular solution (containing 100 μM glutamic acid+100 µM glycine) to obtain the final concentration to be tested. […] Electrophysiological recording
Currents evoked by 100 μM glutamic acid (containing 100 μM glycine) were recorded at room temperature from HEK293 cells transiently expressing NMDA receptor channels using the whole-cell patch clamp technique. Glass microelectrodes were formed by pulling a glass electrode blank (BF150-86-10, Sutter) using a puller. The tip resistance after perfusion of electrode internal solution was about 2-5 MΩ. The glass microelectrodes could be connected to a patch clamp amplifier after being inserted into amplifier probes. […] After whole-cell recording was achieved, the cell was clamped at −70 mV. A gravity-driven rapid administration system was used to apply 100 μM glutamic acid (containing 100 μM glycine) to induce the channel current. After the current stabilized, the 100 μM glutamic acid (containing 100 μM glycine) was administered, and changes in current amplitude were observed. The compounds were administered sequentially from low to high concentration, followed by a final administration of 100 μM glutamic acid (containing 100 μM glycine). Each test concentration of the compound was applied for at least 20 s, and at least 2 cells (n≥2) were tested for each concentration. • d. Data processing
Data were analyzed using pClamp, GraphPad Prism 8, and Excel software.
The IC50 of the compound was calculated using the GraphPad Prism 8 software by equation fitting as follows:
[formula] • where X is the Log value of the test concentration of the test sample, Y is the inhibition percentage at the corresponding concentration, and Bottom and Top are the minimum and maximum inhibition percentages, respectively.
Background: In patch-clamp work, channel activity is measured electrically.

Test [2] deals with human DAT (Homo sapiens, UniProt Q01959). Kind of test: DAT transporter inhibitory activity test (neurotransmitter transporter uptake assay kit). Type of test: cell-based. To be noted: DAT stably transfected HEK cells; read-out: DAT (IC50).
The target in test [3] is Sigma1 receptor (Homo sapiens, UniProt Q99720). Kind of test: Sigma receptor affinity assay ([3H]-DTG binding), Sigma1R. Here is the method:
(§1) Cell membrane: the membrane protein adopted in the experiment was extracted from an HEK293 cell strain stably expressing Sigmal receptor and an HEK293 cell strain stably expressing Sigma2 receptor, which were constructed by WuXi AppTec.
(§2) • 1) Detection buffer: 50 mM Tris-HCl, pH=7.4, stored at 4° C. • 2) Sigma 1R assay plate washing buffer: 50 mM Tris-HCl, pH=7.4, stored at 4° C.; sigma2R assay plate washing buffer: 50 mM Tris-HCl, 100 mM NaCl, pH=7.4, stored at 4° C. • 3) The compounds were diluted to each working concentration: 4-fold serial gradient dilutions for 8 concentrations.
The cell membrane solution and isotope solution were prepared with the pre-cooled detection buffer, with the following configuration information: the membrane concentration was 10 μg/well, and the final concentration of isotopic ligand [3H]-DTG was 5 nM. • 5) After the test compound and the positive control were diluted to the working concentration, 1 μL was added to each well of the assay plate. […] […]. The affinity inhibition constant Ki was calculated using the Cheng Prusoff equation:

Test [4] addresses Sigma2 receptor (Homo sapiens, UniProt Q5BJF2). Kind of test: Sigma receptor affinity assay ([3H]-DTG binding), Sigma2R. To be noted: HEK293 membranes stably expressing Sigma2 receptor, [3H]-DTG 5 nM; read-out: Sigma2R (Ki). Here is the method: as §1, §2
The affinity inhibition constant Ki was calculated using the Cheng Prusoff equation: […]

These results are taken from US20260174739A1 (priority 2022, published 2026).

One may read the pIC50 as −log10 of the IC50, conventionally taken in molar units. In general, pKi refers to the negative decadic logarithm of the Ki, by convention in mol/L.

pIC50, pKi: −log10 of the molar value.

T1 sequence (Q12879 23-1464, other chains not shown): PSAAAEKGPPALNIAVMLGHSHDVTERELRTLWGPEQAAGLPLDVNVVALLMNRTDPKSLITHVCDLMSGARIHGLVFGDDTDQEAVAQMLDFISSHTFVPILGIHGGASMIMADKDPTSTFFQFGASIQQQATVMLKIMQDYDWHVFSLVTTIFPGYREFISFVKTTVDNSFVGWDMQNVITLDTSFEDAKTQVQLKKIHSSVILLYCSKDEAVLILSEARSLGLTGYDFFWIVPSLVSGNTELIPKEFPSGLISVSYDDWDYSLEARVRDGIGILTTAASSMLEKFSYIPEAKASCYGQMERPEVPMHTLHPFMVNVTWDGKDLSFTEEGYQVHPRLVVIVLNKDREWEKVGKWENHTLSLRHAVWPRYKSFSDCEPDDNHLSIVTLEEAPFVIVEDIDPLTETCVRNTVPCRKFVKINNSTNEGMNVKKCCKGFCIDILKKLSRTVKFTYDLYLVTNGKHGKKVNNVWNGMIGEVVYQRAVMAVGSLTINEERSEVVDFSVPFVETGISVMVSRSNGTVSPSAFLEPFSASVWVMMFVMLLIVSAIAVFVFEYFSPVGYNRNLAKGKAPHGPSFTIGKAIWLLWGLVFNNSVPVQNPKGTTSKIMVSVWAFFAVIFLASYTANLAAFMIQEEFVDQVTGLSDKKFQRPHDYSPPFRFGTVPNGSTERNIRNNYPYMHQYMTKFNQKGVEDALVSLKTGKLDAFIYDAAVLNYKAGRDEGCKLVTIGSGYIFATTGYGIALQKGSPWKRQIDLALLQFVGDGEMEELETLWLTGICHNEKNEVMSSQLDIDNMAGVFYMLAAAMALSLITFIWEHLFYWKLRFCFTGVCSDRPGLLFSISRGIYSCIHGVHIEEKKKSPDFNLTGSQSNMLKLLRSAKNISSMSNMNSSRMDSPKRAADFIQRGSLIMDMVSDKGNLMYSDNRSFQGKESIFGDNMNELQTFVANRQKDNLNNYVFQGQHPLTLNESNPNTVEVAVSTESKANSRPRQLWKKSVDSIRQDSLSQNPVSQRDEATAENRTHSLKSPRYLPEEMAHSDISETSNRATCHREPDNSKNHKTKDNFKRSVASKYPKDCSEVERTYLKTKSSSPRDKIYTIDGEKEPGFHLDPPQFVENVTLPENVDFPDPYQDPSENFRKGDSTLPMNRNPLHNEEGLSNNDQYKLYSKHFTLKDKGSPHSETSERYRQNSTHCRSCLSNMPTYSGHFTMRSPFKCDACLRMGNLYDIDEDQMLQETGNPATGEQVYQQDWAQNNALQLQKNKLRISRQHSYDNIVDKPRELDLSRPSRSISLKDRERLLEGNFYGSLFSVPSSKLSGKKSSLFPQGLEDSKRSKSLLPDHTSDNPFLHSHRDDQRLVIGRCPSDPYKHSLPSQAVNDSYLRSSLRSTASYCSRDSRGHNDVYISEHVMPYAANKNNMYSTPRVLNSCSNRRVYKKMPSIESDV
Chain of human DAT (Q01959 whole entry): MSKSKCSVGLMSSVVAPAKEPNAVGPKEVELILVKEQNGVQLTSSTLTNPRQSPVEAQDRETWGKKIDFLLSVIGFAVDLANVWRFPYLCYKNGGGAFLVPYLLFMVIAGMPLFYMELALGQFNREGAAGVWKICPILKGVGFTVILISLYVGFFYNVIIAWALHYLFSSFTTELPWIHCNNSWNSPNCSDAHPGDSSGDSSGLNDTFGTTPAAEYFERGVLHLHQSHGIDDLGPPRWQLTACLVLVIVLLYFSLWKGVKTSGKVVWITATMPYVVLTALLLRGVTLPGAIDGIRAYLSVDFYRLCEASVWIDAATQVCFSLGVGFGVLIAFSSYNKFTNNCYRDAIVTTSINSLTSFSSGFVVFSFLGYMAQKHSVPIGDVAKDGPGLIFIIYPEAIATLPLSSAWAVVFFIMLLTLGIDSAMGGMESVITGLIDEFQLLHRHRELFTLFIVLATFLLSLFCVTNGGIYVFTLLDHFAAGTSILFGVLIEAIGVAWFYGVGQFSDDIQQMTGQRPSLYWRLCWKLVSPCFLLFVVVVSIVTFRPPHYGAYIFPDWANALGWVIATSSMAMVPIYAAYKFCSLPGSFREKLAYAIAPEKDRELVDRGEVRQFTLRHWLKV
Chain of Sigma2 receptor (Q5BJF2 whole entry, species assumed): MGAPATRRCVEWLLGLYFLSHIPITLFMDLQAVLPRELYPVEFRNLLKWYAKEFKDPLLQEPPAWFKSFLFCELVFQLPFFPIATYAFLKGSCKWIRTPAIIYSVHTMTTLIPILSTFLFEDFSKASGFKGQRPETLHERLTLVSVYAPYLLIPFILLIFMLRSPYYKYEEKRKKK
Chain of Sigma1 receptor (Q99720 whole entry): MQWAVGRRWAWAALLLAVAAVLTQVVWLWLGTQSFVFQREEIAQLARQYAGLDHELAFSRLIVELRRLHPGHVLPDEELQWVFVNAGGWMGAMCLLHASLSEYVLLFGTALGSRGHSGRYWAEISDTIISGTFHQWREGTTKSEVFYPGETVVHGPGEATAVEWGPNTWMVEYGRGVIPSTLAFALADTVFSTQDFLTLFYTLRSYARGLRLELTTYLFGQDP

Consider `c1ccc([C@@]2(N3CCCCC3)CCc3[nH]ncc3C2)cc1` [R-A70], for which the pIC50 was 4.80 in test [1] and 5.08 in test [2].

As to `CNC1(c2ccccc2)CCc2sccc2C1` (racemic) [rac-A25, N-methyl-5-phenyl-4,5,6,7-tetrahydrobenzothiophen-5-amine], the pKi in test [3] is 6.55. Turning to “N^4-methyl-4-phenyl-4,5,6,7-tetrahydrobenzothiazole-2,4-diamine [rac-A39]”, the pIC50 in test [1] is 4.92. As to `CN[C@@]1(c2ccccc2)CCc2ncsc2C1` [S-A13], the pIC50 in test [1] is 5.60. For the same compound, the pKi in test [4] is 6.59. Consider `c1ccc([C@]2(N3CCCC3)CCc3[nH]ncc3C2)cc1` [S-A12], for which the pIC50 in test [1] was 6.74. Turning to `c1ccc([C@]2(N3CCCCC3)CCc3[nH]ncc3C2)cc1` [S-A70], the pIC50 in test [1] was 6.08.
